How the values were obtained:
[1] = test system: NK cells; assay: CD56 and CD16 surface expression on purified NK cells (flow); type: cell-based, human; settings: lenalidomide 72 hours
Protocol: FIG. 4B: Lenalidomide treatment increases percentage of CD56+/[…] cells. Negatively selected NK cells were incubated with Lenalidomide (0.5 μM) or vehicle control. CD56 and CD16 surface expression was analyzed by flow after 72 h of treatment. The graphs show, respectively, percentage change CD56+/CD16+ (left panel, N=12, p<0.01) and CD56−/CD16+ (right panel, N=12, p<0.005) double positive cells.
(§1) For ADCC experiments, CD56^+ and CD19^+ cells were negatively purified from whole blood obtained from either healthy volunteers or CLL subjects by magnetic-activated cell sorting according to the manufacturer's recommendations (MiniMACS; Miltenyi Biotec, Auburn, Calif.). The purity of enriched populations was always greater than 95% of the total yield as detected by CD19 and CD3 staining.

[2] = test system: CLL cells; assay: ADCC, 4-hour 51Cr-release assay; type: cell-based, human
Protocol: as §1
ADCC activity was determined by standard 4-hour ^51Cr-release assay. ^51Cr-labeled target cells (10^5 CLL cells/mL) were incubated with media alone or in the presence of various antibodies (10 μg/mL) at 37° C. for 30 minutes. Unbound antibody was washed off and the cells plated at 10^4 cells/well. Effector cells (natural killer [NK] cells from healthy donors or CLL subjects) were then added to the plates at indicated effector-to-target (E:T) ratios. After a 4-hour incubation, supernatants were removed and measured using a gamma counter. The percentage of specific cell lysis was determined by the equation: % lysis=100×(ER−SR)/(MR−SR), where ER, SR, and MR represent experimental, spontaneous, and maximum release, respectively. Data were normalized to the untreated control.

[3] = test system: CLL cells; assay: Immunoliposome FAM-ODN uptake studies; type: cell-based, human
Protocol: An ethanol dilution method was modified to prepare the FAM-ODN-loaded immunoliposomes.^25 Briefly, protamine sulfate in citric acid (20 mM, pH 4) was mixed with lipids (DC-Chol/Egg-PC/PEG-DSPE [molar ratio]=28.0:70.0:2.0) at a mass ratio of lipids:protamine=12.5:0.3, followed by addition of ODN in citric acid (20 mM, pH 4) at ODN/lipids/protamine (weight ratio)=1:12.5:0.3. The complexes were then dialyzed against citric acid (20 mM, pH 4) for 1 hour and then further dialyzed against N-2-hydroxyethylpiperazine-N′-2-ethanesulfonic acid-buffered saline (145 mM NaCl, 20 mM N-2-hydroxyethylpiperazine-N′-2-ethanesulfonic acid, pH 7.4) overnight, using a DispoDialyzer (Spectrum Labs, Rancho Dominguez, Calif.) with a molecular weight cutoff of 10,000 Da. Liposome size distribution was analyzed by dynamic light scattering on a NICOMP Particle Sizer Model 370 (Particle Sizing Systems, Santa Barbara, Calif.).
A postinsertion method was adopted to incorporate antibody ligands into preformed liposomes containing FAM-ODN. In this method, rituximab, trastuzumab (anti-Her2), or alemtuzumab (anti-CD52) was incubated with 20× Traut reagent (2 hours at room temperature) to yield sulfhydryl-modified antibodies. The anti-CD20—sulfhydryl was then incubated with micelles of Mal-PEG-DSPE at a molar ratio of 1:10 and then incubated with FAM-ODN loaded liposomes for 1 hour at 37° C. Targeted liposomes with antibody-PEG-DSPE-to-lipid ratios of 1:1000 ([…]) were thus prepared.
CLL cells were incubated at 10^6 cells/mL for 1 hour at 37° C. with rituximab-, trastuzumab-, or alemtuzumab-coated immunoliposome-FAM-ODN (CODN=1.0 μM) and washed twice in PBS. Cells were kept in culture in RPMI 10% fetal bovine serum for an additional 1, 4, and 24 hours, respectively, in the presence of either 0.5 μM lenalidomide or vehicle control. […] Cells were visualized on a Nikon fluorescence microscope (magnification ×200).
The inventors herein used a FAM-ODN formulated into rituximab-coated immunoliposomes. […] Cells were visualized on a Nikon fluorescence microscope (magnification, ×200).

[4] = test system: Raji cell line xenograft; settings: Raji xenograft mouse, lenalidomide alone; cited from earlier work
[5] = test system: CD52; assay: Immunophenotyping (flow cytometry) of CD52 on CLL cells; type: cell-based, human; settings: 0.5 μM, vs vehicle, data not shown
Protocol: (§2) Immunophenotyping was performed to determine the percentage and mean fluorescence intensity of CD20, CD19, CD5, CD23, CD38, CD3, and CD52 on CLL cells relative to a specific isotype control. Cells (10^6) were washed in PBS, stained with fluorochrome-labeled antibodies at 4° C., then rinsed in PBS and analyzed by flow cytometry (EPICS-XL; Beckman Coulter, Fullerton, Calif.). A total of 10,000 events were collected and analyzed using Windows Multiple Document Interface for Flow Cytometry (WinMDI). CD20, CD19, CD3, CD5, CD23, and CD38 antibodies were obtained from BD Biosciences (San Jose, Calif.), and CD52 antibody was obtained from Serotec (Raleigh, N.C.).

[6] = test system: human monocytes; assay: Antibody-dependent cellular phagocytosis by human monocytes; type: cell-based; settings: data not shown
[7] = test system: CD23; assay: Immunophenotyping (flow cytometry) of CD23 on CLL cells; type: cell-based, human; settings: 0.5 μM, 48 h, vs vehicle, n=6, P=0.001
Protocol: as §2

[8] = rituximab-coated immunoliposome-FAM-ODN, 0.5 μM lenalidomide

With Nc1cccc2c1CN(C1CCC(=O)NC1=O)C2=O (centres unmarked) [lenalidomide] the “percentage of CDC16+/CD56− cells” value ([1]; N=12, P<0.005 (vehicle 35% ±13%)) was 20% ±11%, the “percentage of CD16+/CD56+ cells” value ([1]; N=12, P<0.01 (vehicle 18% ±10%)) was 31% ±14% and the “rituximab-mediated ADCC” value ([2]; cotreatment of autologous NK cells and primary CLL cells, 0.5 μM, 72 hours, vs NK-only controls, N=2, P=0.02) was “diminished”. The “rituximab-mediated ADCC” value ([2]; lenalidomide-pretreated CLL B cells, allogeneic NK cells, N=5, P<0.05) was “decrease”, the “rituximab-mediated ADCC” value ([2]; lenalidomide-pretreated CLL B cells, autologous NK cells, N=2, P<0.05) was “decrease” and the “rituximab-mediated ADCC against target CLL subject cells” value ([2]; lenalidomide-treated NK cells from a healthy donor, N=4, P=0.009) was “overall enhancement”. For the same compound, the “internalization of fluorochrome-labeled ODN from rituximab-coated immunoliposomes” value ([3]; 0.5 μM lenalidomide after 1 h immunoliposome-FAM-ODN (1.0 μM), N=3) was “enhanced internalization”, the “earliest time of enhanced ODN internalization” value [3, 8] was 1 h and the “time of maximum effect on ODN internalization” value [3, 8] was 24 h. The NK cell expansion [4] was “induced NK cell expansion”, the tumor growth [4] was “failed to inhibit tumor growth” and the “CD52 expression on CLL cells” value [5] was “no changes”. For the same compound, the antibody-dependent cellular phagocytosis [6] was “not modulated” and the “CD23 activation marker level on CLL cells” value [7] was “increased levels”.
